Measurements reported in patent publication US20220389061A1, “IMMUNOMODULATORS” (priority 2019, published 2022).
Starred links: 1 amine or outer side, 2 acyl side, 3 side chain; linkers in the order of their positions; H or OH if unused. Positions of bridges follow the written chain, without caps; N, C: chain ends. Non-standard residues stand in square brackets, D forms with d. Residues, ends and D or L forms follow the SMILES beside them. Groups on a side chain read outwards from the residue. *: point of attachment. Trp(1-CH2CO2Me) = COC(=O)Cn1cc(C[C@H](N)C(=O)O)c2ccccc21; Trp(1-CH2COOH) = N[C@@H](Cc1cn(CC(=O)O)c2ccccc12)C(=O)O; Benzoyl(4-F,3-CF3) = O=C(c1ccc(F)c(C(F)(F)F)c1)*; X41 = N=C(NCC[C@H](N[*:1])C(=O)[*:2])c1ccccc1; X40 = N=C(NC[C@H](N[*:1])C(=O)[*:2])c1ccccc1; X24 = COc1cc(NC(=S)*)ccc1-n1cnc(C)n1; X83 = FC(F)(F)c1cc(N*)cc(C(F)(F)F)c1; Hyp = O=C(O)[C@@H]1C[C@@H](O)CN1; X14 = Cc1c[nH]c2c(NC(=S)*)cccc12; X34 = O=C(c1c2ccccc2cc2ccccc12)*; X30 = FC(F)(F)c1ccc(N*)c(Cl)c1; NH(3-MeOPh) = COc1cccc(N*)c1; NMeNle = CCCC[C@H](NC)C(=O)O; X7 = S=C(Nc1ccc2cc[nH]c2c1)*; X5 = S=C(Nc1cccc2ccccc12)*; NMeA = CN[C@@H](C)C(=O)O; Dab = NCC[C@H](N)C(=O)O; Dap = NC[C@H](N)C(=O)O; X17 = Cc1cc(C)cc(N*)c1; CO = O=C([*:1])[*:2]

Target: T1, PD-1/PD-L1 (Homo sapiens, UniProt Q9NZQ7)
T1 construct: TVMV protease site linker (C); made in house; host or cells: HEK293T cells
T1 sequence (Q9NZQ7 18-239): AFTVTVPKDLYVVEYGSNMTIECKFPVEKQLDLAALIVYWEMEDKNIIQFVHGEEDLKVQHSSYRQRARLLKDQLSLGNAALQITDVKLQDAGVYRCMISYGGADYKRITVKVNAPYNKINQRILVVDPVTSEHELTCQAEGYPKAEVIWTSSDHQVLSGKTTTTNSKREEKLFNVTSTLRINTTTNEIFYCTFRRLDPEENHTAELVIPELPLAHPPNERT
Test: PD-1/PD-L1 Homogenous Time-Resolved Fluorescence (HTRF) binding assay
Conditions: PD-L1-His 10 nM pre-incubated with inhibitor, PD-1-Ig 20 nM; read-out: HTRF IC50
Source text: The ability of the compounds of formula (I) to bind to PD-L1 was investigated using a PD-1/PD-L1 Homogenous Time-Resolved Fluorescence (HTRF) binding assay.
The interaction of PD-1 and PD-L1 can be assessed using soluble, purified preparations of the extracellular domains of the two proteins. The PD-1 and PD-L1 protein extracellular domains were expressed as fusion proteins with detection tags, for PD-1, the tag was the Fc portion of Immunoglobulin (PD-1-Ig) and for PD-L1 it was the 6 histidine motif (PD-L1-His). All binding studies were performed in an HTRF assay buffer consisting of dPBS supplemented with 0.1% […] bovine serum albumin and 0.05% (v/v) Tween-20. For the h/PD-L1-His binding assay, inhibitors were pre-incubated with PD-L1-His (10 nM final) for 15 m in 4 μl of assay buffer, followed by addition of PD-1-Ig (20 nM final) in 1 μl of assay buffer and further incubation for 15 m. HTRF detection was achieved using europium crypate-labeled anti-Ig (1 nM final) and allophycocyanin (APC) labeled anti-His (20 nM final). Antibodies were diluted in HTRF detection buffer and 5 μl was dispensed on top of the binding reaction. […] Additional binding assays were established between the human proteins PD-1-Ig/PD-L2-His (20 & 5 nM, respectively) and CD80-His/PD-L1-Ig (100 & 10 nM, respectively). […]

| IC50 | SMILES |
| --- | --- |
| 3.4 nM | CCCC[C@H]1C(=O)N(C)[C@@H](CCCC)C(=O)N[C@@H](CC(C)C)C(=O)N[C@H](C(=O)NCC(N)=O)CSCC(=O)N[C@@H](Cc2ccc(O)cc2)C(=O)N(C)[C@@H](C)C(=O)N[C@@H](CC(N)=O)C(=O)N2CCC[C@H]2C(=O)N[C@@H](CNC(=S)Nc2ccc(-n3cnc(C)n3)c(OC)c2)C(=O)N[C@@H](CC(C)C)C(=O)N2C[C@H](O)C[C@H]2C(=O)N[C@@H](Cc2c[nH]c3ccccc23)C(=O)N[C@@H](CCNC(=S)Nc2ccc(-n3cnc(C)n3)c(OC)c2)C(=O)N[C@@H](Cc2cn(CC(=O)O)c3ccccc23)C(=O)N1C [Example 1092] ({CH2CO}-Y[NMeA]NP[Dap](X24)L[Hyp]W[Dab](X24)[Trp(1-CH2COOH)][NMeNle][NMeNle]LCG-NH2; thioether N-14) |
| 32 nM | CCCC[C@H]1C(=O)N(C)[C@@H](CCCC)C(=O)N[C@@H](CC(C)C)C(=O)N[C@H](C(=O)NCC(N)=O)CSCC(=O)N[C@@H](Cc2ccc(O)cc2)C(=O)N(C)[C@@H](C)C(=O)N[C@@H](CC(N)=O)C(=O)N2CCC[C@H]2C(=O)N[C@@H](CNC(=O)c2ccc(F)c(C(F)(F)F)c2)C(=O)N[C@@H](CC(C)C)C(=O)N2C[C@H](O)C[C@H]2C(=O)N[C@@H](Cc2c[nH]c3ccccc23)C(=O)N[C@@H](CCNC(=O)c2ccc(F)c(C(F)(F)F)c2)C(=O)N[C@@H](Cc2cn(CC(=O)OC)c3ccccc23)C(=O)N1C [Example 1007] ({CH2CO}-Y[NMeA]NP[Dap](Benzoyl(4-F,3-CF3))L[Hyp]W[Dab](Benzoyl(4-F,3-CF3))[Trp(1-CH2CO2Me)][NMeNle][NMeNle]LCG-NH2; thioether N-14) |
| 3.4 nM | CCCC[C@H]1C(=O)N(C)[C@@H](CCCC)C(=O)N[C@@H](CC(C)C)C(=O)N[C@H](C(=O)NCC(N)=O)CSCC(=O)N[C@@H](Cc2ccc(O)cc2)C(=O)N(C)[C@@H](C)C(=O)N[C@@H](CC(N)=O)C(=O)N2CCC[C@H]2C(=O)N[C@@H](CNC(=N)c2ccccc2)C(=O)N[C@@H](CC(C)C)C(=O)N2C[C@H](O)C[C@H]2C(=O)N[C@@H](Cc2c[nH]c3ccccc23)C(=O)N[C@@H](CCNC(=N)c2ccccc2)C(=O)N[C@@H](Cc2cn(CC(=O)O)c3ccccc23)C(=O)N1C [Example 1019] ({CH2CO}-Y[NMeA]NP[X40]L[Hyp]W[X41][Trp(1-CH2COOH)][NMeNle][NMeNle]LCG-NH2; thioether N-14) |
| 274 nM | CCCC[C@H]1C(=O)N(C)[C@@H](CCCC)C(=O)N[C@@H](CC(C)C)C(=O)N[C@H](C(=O)NCC(N)=O)CSCC(=O)N[C@@H](Cc2ccc(O)cc2)C(=O)N(C)[C@@H](C)C(=O)N[C@@H](CC(N)=O)C(=O)N2CCC[C@H]2C(=O)N[C@@H](CNC(=O)Nc2cc(C(F)(F)F)cc(C(F)(F)F)c2)C(=O)N[C@@H](CC(C)C)C(=O)N2C[C@H](O)C[C@H]2C(=O)N[C@@H](Cc2c[nH]c3ccccc23)C(=O)N[C@@H](CCNC(=O)Nc2cc(C(F)(F)F)cc(C(F)(F)F)c2)C(=O)N[C@@H](Cc2cn(CC(=O)O)c3ccccc23)C(=O)N1C [Example 1015] ({CH2CO}-Y[NMeA]NP[Dap]([CO-X83])L[Hyp]W[Dab]([CO-X83])[Trp(1-CH2COOH)][NMeNle][NMeNle]LCG-NH2; thioether N-14) |
| 0.1 nM | CCCC[C@H]1C(=O)N(C)[C@@H](CCCC)C(=O)N[C@@H](CC(C)C)C(=O)N[C@H](C(=O)NCC(N)=O)CSCC(=O)N[C@@H](Cc2ccc(O)cc2)C(=O)N(C)[C@@H](C)C(=O)N[C@@H](CC(N)=O)C(=O)N2CCC[C@H]2C(=O)N[C@@H](CN)C(=O)N[C@@H](CC(C)C)C(=O)N2C[C@H](O)C[C@H]2C(=O)N[C@@H](Cc2c[nH]c3ccccc23)C(=O)N[C@@H](CCNC(=S)Nc2cccc3ccccc23)C(=O)N[C@@H](Cc2cn(CC(=O)O)c3ccccc23)C(=O)N1C [Example 3029] ({CH2CO}-Y[NMeA]NP[Dap]L[Hyp]W[Dab](X5)[Trp(1-CH2COOH)][NMeNle][NMeNle]LCG-NH2; thioether N-14) |
| 26 nM | CCCC[C@H]1C(=O)N(C)[C@@H](CCCC)C(=O)N[C@@H](CC(C)C)C(=O)N[C@H](C(=O)NCC(N)=O)CSCC(=O)N[C@@H](Cc2ccc(O)cc2)C(=O)N(C)[C@@H](C)C(=O)N[C@@H](CC(N)=O)C(=O)N2CCC[C@H]2C(=O)N[C@@H](CNC(=O)Nc2ccc(C(F)(F)F)cc2Cl)C(=O)N[C@@H](CC(C)C)C(=O)N2C[C@H](O)C[C@H]2C(=O)N[C@@H](Cc2c[nH]c3ccccc23)C(=O)N[C@@H](CCN)C(=O)N[C@@H](Cc2cn(CC(=O)O)c3ccccc23)C(=O)N1C [Example 1105] ({CH2CO}-Y[NMeA]NP[Dap]([CO-X30])L[Hyp]W[Dab][Trp(1-CH2COOH)][NMeNle][NMeNle]LCG-NH2; thioether N-14) |
| 14 nM | CCCC[C@H]1C(=O)N(C)[C@@H](CCCC)C(=O)N[C@@H](CC(C)C)C(=O)N[C@H](C(=O)NCC(N)=O)CSCC(=O)N[C@@H](Cc2ccc(O)cc2)C(=O)N(C)[C@@H](C)C(=O)N[C@@H](CC(N)=O)C(=O)N2CCC[C@H]2C(=O)N[C@@H](CNC(=O)Nc2cc(C)cc(C)c2)C(=O)N[C@@H](CC(C)C)C(=O)N2C[C@H](O)C[C@H]2C(=O)N[C@@H](Cc2c[nH]c3ccccc23)C(=O)N[C@@H](CCNC(=O)Nc2cccc(OC)c2)C(=O)N[C@@H](Cc2cn(CC(=O)O)c3ccccc23)C(=O)N1C [Example 1121] ({CH2CO}-Y[NMeA]NP[Dap]([CO-X17])L[Hyp]W[Dab]([CO-NH(3-MeOPh)])[Trp(1-CH2COOH)][NMeNle][NMeNle]LCG-NH2; thioether N-14) |
| 2.5 nM | CCCC[C@H]1C(=O)N(C)[C@@H](CCCC)C(=O)N[C@@H](CC(C)C)C(=O)N[C@H](C(=O)NCC(N)=O)CSCC(=O)N[C@@H](Cc2ccc(O)cc2)C(=O)N(C)[C@@H](C)C(=O)N[C@@H](CC(N)=O)C(=O)N2CCC[C@H]2C(=O)N[C@@H](CNC(=S)Nc2cccc3c(C)c[nH]c23)C(=O)N[C@@H](CC(C)C)C(=O)N2C[C@H](O)C[C@H]2C(=O)N[C@@H](Cc2c[nH]c3ccccc23)C(=O)N[C@@H](CCN)C(=O)N[C@@H](Cc2cn(CC(=O)O)c3ccccc23)C(=O)N1C [Example 3020] ({CH2CO}-Y[NMeA]NP[Dap](X14)L[Hyp]W[Dab][Trp(1-CH2COOH)][NMeNle][NMeNle]LCG-NH2; thioether N-14) |
| 4.1 nM | CCCC[C@H]1C(=O)N(C)[C@@H](CCCC)C(=O)N[C@@H](CC(C)C)C(=O)N[C@H](C(=O)NCC(N)=O)CSCC(=O)N[C@@H](Cc2ccc(O)cc2)C(=O)N(C)[C@@H](C)C(=O)N[C@@H](CC(N)=O)C(=O)N2CCC[C@H]2C(=O)N[C@@H](CNC(=S)Nc2ccc3cc[nH]c3c2)C(=O)N[C@@H](CC(C)C)C(=O)N2C[C@H](O)C[C@H]2C(=O)N[C@@H](Cc2c[nH]c3ccccc23)C(=O)N[C@@H](CCN)C(=O)N[C@@H](Cc2cn(CC(=O)O)c3ccccc23)C(=O)N1C [Example 3049] ({CH2CO}-Y[NMeA]NP[Dap](X7)L[Hyp]W[Dab][Trp(1-CH2COOH)][NMeNle][NMeNle]LCG-NH2; thioether N-14) |

| SMILES | IC50 |
| --- | --- |
| CCCC[C@H]1C(=O)N(C)[C@@H](CCCC)C(=O)N[C@@H](CC(C)C)C(=O)N[C@H](C(=O)NCC(N)=O)CSCC(=O)N[C@@H](Cc2ccc(O)cc2)C(=O)N(C)[C@@H](C)C(=O)N[C@@H](CC(N)=O)C(=O)N2CCC[C@H]2C(=O)N[C@@H](CNC(=O)c2c3ccccc3cc3ccccc23)C(=O)N[C@@H](CC(C)C)C(=O)N2C[C@H](O)C[C@H]2C(=O)N[C@@H](Cc2c[nH]c3ccccc23)C(=O)N[C@@H](CCN)C(=O)N[C@@H](Cc2cn(CC(=O)O)c3ccccc23)C(=O)N1C [Example 2015] ({CH2CO}-Y[NMeA]NP[Dap](X34)L[Hyp]W[Dab][Trp(1-CH2COOH)][NMeNle][NMeNle]LCG-NH2; thioether N-14) | 3.2 nM |
